Laboratory results as given in BindingDB's records for doi:10.1021/ml400382p (Glaxosmithkline, 2013).

Assay: Inhibition of RIP1 in human U937 cells assessed as prevention of TNFalpha/zVAD.fmk-induced necrotic cell death preincubated for 30 to 60 mins followed by TNF-alpha induction measured after overnight incubation by Cell Titer-Glo luminescence assay

Nc1ncnc2occ(-c3ccc(NC(=O)Nc4ccc(F)c(C(F)(F)F)c4)cc3)c12
IC50: 1300 nM

CCS(=O)(=O)c1ccc(-c2cnc3[nH]cc(-c4cccc(NC(=O)Nc5cc(C(F)(F)F)ccc5F)c4)c3c2)cc1
IC50: 25 nM

O=C(Nc1ccccc1)Nc1cccc(-c2c[nH]c3ncc(-c4ccccc4)cc23)c1 [1-phenyl-3-(3-(5-phenyl-1H-pyrrolo[2,3-b]pyridin-3-yl)phenyl)urea]
IC50: 600 nM

CS(=O)(=O)c1cccc(-c2cnc3[nH]cc(-c4cccc(NC(=O)Nc5cc(C(F)(F)F)ccc5F)c4)c3c2)c1
IC50: 50 nM

Nc1nccc2c(-c3ccc(NC(=O)Nc4cc(C(F)(F)F)ccc4Cl)cc3)cccc12
IC50: > 10000 nM

Nc1ncnc2occ(-c3ccc(NC(=O)Nc4cccc(C(F)(F)F)c4)cc3)c12 [3-(4-{4-aminofuro[2,3-d]pyrimidin-5-yl}phenyl)-1-[3-(trifluoromethyl)phenyl]urea]
IC50: 1000 nM

Nc1ncnc2occ(-c3ccc(NC(=O)Nc4cc(C(F)(F)F)cc(C(F)(F)F)c4)cc3)c12 [3-(4-{4-aminofuro[2,3-d]pyrimidin-5-yl}phenyl)-1-[3,5-bis(trifluoromethyl)phenyl]urea]
IC50: 7900 nM

Nc1ncnc2occ(-c3ccc(NC(=O)Nc4ccc(Cl)c(C(F)(F)F)c4)cc3)c12
IC50: 1300 nM

O=C(Nc1cccc(-c2c[nH]c3ncc(-c4ccccc4)cc23)c1)Nc1cccc([N+](=O)[O-])c1
IC50: 320 nM

Nc1nccc2c(-c3ccc(NC(=O)Nc4ccc(Cl)c(C(F)(F)F)c4)cc3)cccc12
IC50: 2000 nM

O=C(Nc1cccc(-c2c[nH]c3ncc(-c4ccccc4)cc23)c1)Nc1cccc(C(F)(F)F)c1
IC50: 79 nM

NC(=O)c1cccc(-c2cnc3[nH]cc(-c4cccc(NC(=O)Nc5cc(C(F)(F)F)ccc5F)c4)c3c2)c1
IC50: 63 nM

Nc1nccc2c(-c3ccc(NC(=O)Nc4cccc(C(F)(F)F)c4)cc3)cccc12
IC50: 630 nM

Nc1ncnc2occ(-c3ccc(NC(=O)Nc4ccc5ccccc5c4)cc3)c12 [3-(4-{4-aminofuro[2,3-d]pyrimidin-5-yl}phenyl)-1-naphthalen-2-ylurea]
IC50: 790 nM

Nc1ncnc2occ(-c3ccc(NC(=O)Nc4cccc(Cl)c4)cc3)c12
IC50: 7900 nM

CCc1cccc(NC(=O)Nc2ccc(-c3coc4ncnc(N)c34)cc2)c1
IC50: 250 nM

Nc1ccc(-c2cnc3[nH]cc(-c4cccc(NC(=O)Nc5cc(C(F)(F)F)ccc5F)c4)c3c2)cc1
IC50: 16 nM

Nc1nccc2c(-c3ccc(NC(=O)Nc4cc(C(F)(F)F)ccc4F)cc3)cccc12
IC50: 630 nM

CC(C)(C)c1cc(NC(=O)Nc2ccc(-c3coc4ncnc(N)c34)cc2)no1
IC50: 200 nM

CC(=O)c1cccc(NC(=O)Nc2cccc(-c3c[nH]c4ncc(-c5ccccc5)cc34)c2)c1
IC50: 320 nM

O=C(Nc1cccc(-c2c[nH]c3ncc(-c4cccnc4)cc23)c1)Nc1cc(C(F)(F)F)ccc1F
IC50: 6.3 nM

Nc1nccc2c(-c3ccc(NC(=O)Nc4cc(F)cc(C(F)(F)F)c4)cc3)cccc12
IC50: 2500 nM

Nc1ncnc2occ(-c3ccc(NC(=O)Nc4cccc(C(F)(F)F)c4F)cc3)c12
IC50: 10000 nM

COc1cccc(NC(=O)Nc2cccc(-c3c[nH]c4ncc(-c5ccccc5)cc34)c2)c1
IC50: 400 nM

O=C(Nc1cccc(-c2c[nH]c3ncc(-c4cn[nH]c4)cc23)c1)Nc1cc(C(F)(F)F)ccc1F
IC50: 63 nM

Nc1nccc2c(-c3ccc(NC(=O)Nc4ccc(F)c(C(F)(F)F)c4)cc3)cccc12
IC50: 2500 nM

Nc1ncnc2occ(-c3ccc(NC(=O)Nc4cc(F)cc(C(F)(F)F)c4)cc3)c12
IC50: 5000 nM

O=C(Nc1cccc(-c2c[nH]c3ncc(-c4ccccc4)cc23)c1)NC1CCCC1
IC50: 7900 nM

O=C(Nc1cccc(-c2c[nH]c3ncc(-c4ccccc4)cc23)c1)Nc1cc(C(F)(F)F)ccc1F
IC50: 160 nM
